Measured values published in US10214544B2, “Imidazopyridazine and imidazothiadiazole compounds” (Universite de Montreal, priority 2015, dated 2019).
No end group written: not given here.

Target: PAR1 (Homo sapiens (Human), UniProt P25116)
Assay: FLIPR assay, PAR1 agonist peptide response in PAR1/PAR4-expressing HEK293 cells
Format: cell-based
Settings: routine test of agonist response, FLIPR assay of Example A
Description: HEK293 cells stably expressing PAR4 were generated by a standard method of transfection of human PAR4 (F2R23) cDNA expression vector and selected based on PAR4 protein expression or mRNA expression. […] These cells also express endogenous PAR1 and can elicit calcium signal upon stimulation with PAR1 agonist peptide. Therefore, the same cells were also used to determine selectivity against PAR1 and agonist activity for both receptors. Cells from HEK293 PAR4 Clone 1.2A (BMS Arctic ID 383940) were propagated and used for calcium mobilization studies.
FLIPR-based calcium mobilization assay in HEK293 cells was used to measure PAR4 antagonism, agonism, and selectivity against PAR1. The activity of the PAR4 antagonists of the present invention were tested in PAR4 expressing cells by monitoring H-Ala-Phe(4-F)-[…]NH2-induced intracellular calcium mobilization. Counter screens for agonist activity and PAR1 antagonist activity were also performed. Briefly, PAR1/PAR4-expressing HEK293 cells were grown in DMEM (Life Technology, Grand Island, N.Y.) containing 10% heat-inactivated FBS, 1% Penicillin-Streptomycin, 10 μg/mL blasticidin, and 100 μg/mL Zeocin at 37° C. with 5% CO2. […] Changes in fluorescence intensity were measured using a Functional Drug Screening System (FDSS, Hamamatsu, Japan) to determine agonist activities. […]

Chain of PAR1 (P25116 22-425): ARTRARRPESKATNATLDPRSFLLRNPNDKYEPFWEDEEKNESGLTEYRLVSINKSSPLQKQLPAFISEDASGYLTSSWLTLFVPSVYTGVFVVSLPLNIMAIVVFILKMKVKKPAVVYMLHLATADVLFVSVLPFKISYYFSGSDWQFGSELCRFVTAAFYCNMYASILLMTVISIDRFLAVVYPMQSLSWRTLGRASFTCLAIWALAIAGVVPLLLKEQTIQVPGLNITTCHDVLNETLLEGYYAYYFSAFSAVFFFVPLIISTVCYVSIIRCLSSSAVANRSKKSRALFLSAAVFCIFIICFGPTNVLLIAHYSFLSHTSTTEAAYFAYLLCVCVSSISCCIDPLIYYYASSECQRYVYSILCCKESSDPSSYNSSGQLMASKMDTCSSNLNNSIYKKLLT

## SFFLRR [SFFLRR]
  EC50: ~2000 nM
